# Measurements reported in ChEMBL document CHEMBL1127015, “Centrally acting serotonergic and dopaminergic agents. 1. Synthesis and structure-activity relationships of 2,3,3a,4,5,9b-hexahydro-1H-benz[e]indole derivatives” (J Med Chem, 1993).
# Values joined by “and” are separate entries in the source; they are usually repeats but may differ in a detail not shown here. Equal values may be shown once.
# Tests used:
# [1] = target: T1, D(2) dopamine receptor (Homo sapiens, UniProt P14416); assay: Binding affinity against [3H]U-86,170-labeled dopamine receptor D2 in cloned CHO cells; assay type: cell-based
# [2] = test system: Mus musculus; assay: Maximum decrease in temperature when compound is administered subcutaneously; assay type: functional
# [3] = target: T2, D(2) dopamine receptor (Rattus norvegicus, UniProt P61169); assay: Inhibitory concentration against [3H]raclopride-labeled dopamine receptor D2 in rat striatum; assay type: tissue-based
# [4] = test system: Mus musculus; assay: Effective dose on hypothermia in mouse when administered through peroral route; assay type: functional; settings: po
# [5] = test system: Mus musculus; assay: Maximum decrease in temperature when compound is administered through peroral route; assay type: functional
# [6] = test system: Mus musculus; assay: Effective dose on hypothermia in mouse when administered subcutaneously; assay type: functional; settings: sc
# [7] = test system: Rattus norvegicus; assay: Inhibition of firing rates of dopaminergic neurons in the substantia nigra pars compacta by intravenous injection in rats.; assay type: functional
# [8] = target: T1, D(2) dopamine receptor; assay: Intrinsic activity from GTP shift using membranes from CHO cells transfected with mammalian dopamine receptor D2.; assay type: cell membranes
# [9] = target: T2, D(2) dopamine receptor; assay: Binding affinity against [3H]raclopride-labeled dopamine receptor D2 in rat striatum.; assay type: tissue-based
# [10] = test system: Mus musculus; assay: Antagonism of apomorphine for 10-20 minutes in reserpinized mice when a dose of 36 micro mol/kg is administered intraperitoneally; assay type: functional
# [11] = test system: Mus musculus; assay: Antagonism of apomorphine effects in reserpinized mice following 0.4 umol/kg i.p.; assay type: functional
# [12] = test system: Felis catus; assay: Maximum decrease of arterial blood pressure at sympathetic nerve activity (SND) in anesthetized cat has been observed following 1 mg/kg dose; assay type: functional; set-up: scale not given: the % may be the effect or the level left
# [13] = test system: Mus musculus; assay: Antagonism of apomorphine for 0-10 minutes in reserpinized mice when a dose of 3.6 micro mol/kg is administered intraperitoneally; assay type: functional
# [14] = test system: Mus musculus; assay: Antagonism of apomorphine for 0-10 minutes in reserpinized mice when a dose of 36 micro mol/kg is administered intraperitoneally; assay type: functional
# [15] = test system: Mus musculus; assay: Antagonism of apomorphine effects for 0-10 minutes in reserpinized mice following 0.4 umol/kg i.p.; assay type: functional; set-up: unit not given beside the values
# [16] = test system: Mus musculus; assay: Antagonism of apomorphine for 10-20 minutes in reserpinized mice when a dose of 3.6 micro mol/kg is administered intraperitoneally; assay type: functional
# [17] = test system: Mus musculus; assay: Antagonism of apomorphine in reserpinized mice when a dose of 3.6 micro mol/kg is administered intraperitoneally; assay type: functional
# [18] = test system: Mus musculus; assay: Antagonism of apomorphine effects for 10-20 minutes in reserpinized mice following 0.4 umol/kg i.p.; assay type: functional
# [19] = species on record: Rattus norvegicus; assay: Effect on the synthesis rates of serotonin (5-HTP accumulation) in the rat ventral limbic brain region at 10.7uMkg. value as percent change from the control; assay type: functional, Limbic system
# [20] = test system: Felis catus; assay: Maximum decrease of sympathetic nerve activity (SND) in anesthetized cat has been expressed as percent control; assay type: functional; set-up: scale not given: the % may be the effect or the level left
# [21] = test system: Mus musculus; assay: Ability to stimulate dopaminergic systems by effect on locomotor activity in reserpinized mice when a dose of 36 micro mol/kg is administered intraperitoneally; assay type: functional
# [22] = test system: Mus musculus; assay: Increase in locomotor activity in reserpinized mice following 0.4 umol/kg i.p.; assay type: functional
# [23] = species on record: Rattus norvegicus; assay: Effect on the synthesis rates of serotonin (5-HTP accumulation) in the rat ventral limbic brain region at 10.7uMkg.; assay type: functional, Limbic system
# [24] = test system: Mus musculus; assay: Ability to stimulate dopaminergic systems by effect on locomotor activity in reserpinized mice when a dose of 3.6 micro mol/kg is administered intraperitoneally; assay type: functional
# [25] = test system: Mus musculus; assay: Antagonism of apomorphine in reserpinized mice when a dose of 36 micro mol/kg is administered intraperitoneally; assay type: functional
# [26] = test system: Felis catus; assay: Effective dose at which the sympathetic nerve activity (SND) has been reduced to 50% of the pretreatment value in anesthetized cat; assay type: functional
# [27] = species on record: Felis catus; assay: Percent of arterial blood pressure at sympathetic nerve activity (SND) dose value was determined; assay type: functional
# [28] = test system: Felis catus; assay: Maximum decrease of sympathetic nerve activity (SND) in anesthetized cat; assay type: functional; set-up: scale not given: the % may be the effect or the level left
# T2 sequence (P61169 whole entry): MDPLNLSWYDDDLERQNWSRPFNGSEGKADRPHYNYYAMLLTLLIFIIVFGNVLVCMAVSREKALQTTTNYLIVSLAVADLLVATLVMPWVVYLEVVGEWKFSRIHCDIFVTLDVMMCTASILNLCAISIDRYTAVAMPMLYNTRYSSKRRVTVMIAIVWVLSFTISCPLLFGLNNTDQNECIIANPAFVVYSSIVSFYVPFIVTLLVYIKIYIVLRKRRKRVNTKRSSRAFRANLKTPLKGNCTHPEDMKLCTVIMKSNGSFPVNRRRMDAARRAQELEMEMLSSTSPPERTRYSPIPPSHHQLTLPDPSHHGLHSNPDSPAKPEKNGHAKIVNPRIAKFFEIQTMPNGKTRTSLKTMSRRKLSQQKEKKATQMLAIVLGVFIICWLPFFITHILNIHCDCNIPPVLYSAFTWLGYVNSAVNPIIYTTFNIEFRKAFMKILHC
# T1 sequence (P14416 whole entry): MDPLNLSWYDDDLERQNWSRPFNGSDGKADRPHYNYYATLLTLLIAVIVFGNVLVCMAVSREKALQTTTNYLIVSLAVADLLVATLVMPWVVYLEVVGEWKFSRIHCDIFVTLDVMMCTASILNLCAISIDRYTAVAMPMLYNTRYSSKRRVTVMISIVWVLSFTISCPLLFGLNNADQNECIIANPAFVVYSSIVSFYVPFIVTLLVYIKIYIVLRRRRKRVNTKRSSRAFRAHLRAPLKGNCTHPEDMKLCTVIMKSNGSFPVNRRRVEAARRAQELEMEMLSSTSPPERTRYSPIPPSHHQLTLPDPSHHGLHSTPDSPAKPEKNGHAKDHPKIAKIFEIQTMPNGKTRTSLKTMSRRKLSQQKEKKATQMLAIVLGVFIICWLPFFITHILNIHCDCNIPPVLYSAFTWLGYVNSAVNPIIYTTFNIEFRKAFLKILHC
structure (smiles),measurement,setting,value
COc1cccc2c1C1CCN(CCc3ccccc3)[C@@H]1CC2 (some centres undefined),Ki,[1],> 339 nM
CCCN1CC[C@H]2c3c(O)cccc3CC[C@H]21,Max temperature decrease,[2],5.5
same,IC50,[3],> 1000 nM
same,ED50,[4],4.9 µmol/kg
same,Max temperature decrease,[5],7.3
same,ED50,[6],0.3 µmol/kg
C=CCN1CC[C@@H]2c3cccc(OC)c3CC[C@@H]21,ED50,"[7]; Rattus norvegicus, Substantia nigra pars compacta, iv, read-out: ED50",> 3.6 µmol/kg
CCCN1CC[C@@H]2c3c(O)cccc3CC[C@@H]21,Intrinsic activity,[8],0%
same,Max temperature decrease,[2],8.5
same,IC50,[3],> 1000 nM
same,ED50,[4],21 µmol/kg
same,Max temperature decrease,[5],5.5
same,ED50,[6],0.05 µmol/kg
CCCN1CC[C@@H]2c3c(cccc3OC)CC[C@@H]21,Ki,[9],> 1000 nM
C=CCN1CCC2c3cccc(OC)c3CC[C@H]21 (mixture of isomers),Locomotor activity,[10],17
same,Locomotor activity,[11],73
same,Control,[12],98%
same,Locomotor activity,[13],112
same,Locomotor activity,[14],33
same,Intrinsic activity,[8],0%
same,Locomotor activity,[15],91
same,Locomotor activity,[16],59
same,Locomotor activity,[17],27
same,Locomotor activity,[18],92
same,ED50,[7],0.42 µM/kg and 0.88 µM/kg
same,Ki,[9],42 nM
same,Control,[19],-4%
same,Control,[20],132%
same,Locomotor activity,[21],9
same,Locomotor activity,[22],15
same,Control,[23],147%
same,Locomotor activity,[24],9
same,Locomotor activity,[25],1
same,ED50,[6],> 107 µmol/kg
CCCN1[C@@H]2CCc3cccc(OC)c3C2C[C@@H]1C (mixture of isomers),Control,[12],73%
same,Max temperature decrease,[2],6.8
same,ED50,[26],0.17 µmol/kg
same,IC50,[3],> 1000 nM
same,BP,[27],42%
same,ED50,[4],338 µmol/kg
same,Control,[28],82%
same,Max temperature decrease,[5],3
same,ED50,[6],14 µmol/kg
CCCN1CCC2c3c(cccc3OC)CCC21 (racemic),Max temperature decrease,[2],1.5
same,ED50,[4],109 µmol/kg
same,Ki,[9],> 1000 nM
same,Max temperature decrease,[5],6
same,ED50,[6],20 µmol/kg
C=CCN1CC[C@@H]2c3cccc(OC)c3CC[C@H]21 (racemic),Locomotor activity,[10],54
same,Locomotor activity,[11],156
same,Control,[12],61%
same,Locomotor activity,[13],76
same,Locomotor activity,[14],42
same,Intrinsic activity,[8],0%
same,Locomotor activity,[15],78
same,Locomotor activity,[16],116
same,Max temperature decrease,[2],3.4
same,Locomotor activity,[17],142
same,Locomotor activity,[18],106
same,Ki,[9],99 nM
same,Control,[19],95%
same,Control,[20],105%
same,Locomotor activity,[21],49
same,Locomotor activity,[22],4
same,Control,[23],-51%
same,Locomotor activity,[24],81
same,Locomotor activity,[25],13
same,ED50,[6],> 107 µmol/kg
COc1cccc2c1CC[C@@H]1[C@@H]2CCN1CC1CC1 (racemic),Ki,[9],> 10000 nM
